Data on 15 compounds can be found in patent publication US20140163026A1, “8-ETHYL-6-(ARYL)PYRIDO[2,3-D]PYRIMIDIN-7(8H)-ONES FOR THE TREATMENT OF NERVOUS SYSTEM DISORDERS AND CANCER” (Afraxis Holdings, Inc., priority 2011, published 2014).

Some results are limits rather than exact numbers.

What all share (type): biochemical
Experiment [1] concerns the target PAK2 (PAK65) (Homo sapiens, UniProt Q13177). The experiment in a line: In vitro PAK inhibition assay (SelectScreen, Ser/Thr 20 peptide). The procedure, abridged:
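Ten-point threefold compound dilutions (1% DMSO) were incubated with PAK2 (0.29-6 ng) and Ser/Thr 20 substrate (2 μM) for 60 min at room temperature in HEPES pH 7.5 buffer with MgCl2, EGTA and BRIJ-35.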

Experiment [2] concerns the target PAK3 (Homo sapiens, UniProt O75914). The description is as above. The procedure, abridged: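 Fluorescence-based development format: after a 60-min room-temperature kinase reaction and 60-min protease development, percent phosphorylation of Ser/Thr 20 peptide calculated via phosphopeptide controls. Buffer 50 mM HEPES pH 7.5, 10 mM MgCl2, 1 mM EGTA, 0.01% BRIJ-35; compounds at 1% DMSO, 10-point 3-fold dilution series.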

Experiment [3] has as its target PAK1 (Homo sapiens, UniProt Q13153). The experiment in a line: In vitro PAK inhibition assay (SelectScreen, Ser/Thr 19 peptide). The procedure, abridged: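 Ten-point, 3-fold compound series at 1% final DMSO were incubated with enzyme, Ser/Thr 19 peptide and ATP for 60 min at room temperature. Buffer was HEPES pH 7.5 (50 mM) with 10 mM MgCl2, 1 mM EGTA, 0.01% BRIJ-35. A 60 min development step preceded the fluorescence read converted to % phosphorylation.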

Experiment [4] has as its target PAK4 (Homo sapiens, UniProt O96013). The experiment in a line: In vitro PAK inhibition assay (SelectScreen, Ser/Thr 20 peptide). An outline of the steps: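 Ten-point, 3-fold compound series (1% DMSO) incubated 1 h at room temperature with PAK4 (0.1-0.75 ng) and 2 μM Ser/Thr 20 peptide, HEPES pH 7.5 buffer with MgCl2, EGTA, BRIJ-35. Development reagent cleaves non-phosphorylated peptide; fluorescence emission ratio gives % phosphorylation, fitted sigmoidally for IC50.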

PAK3, sequence (O75914 whole entry): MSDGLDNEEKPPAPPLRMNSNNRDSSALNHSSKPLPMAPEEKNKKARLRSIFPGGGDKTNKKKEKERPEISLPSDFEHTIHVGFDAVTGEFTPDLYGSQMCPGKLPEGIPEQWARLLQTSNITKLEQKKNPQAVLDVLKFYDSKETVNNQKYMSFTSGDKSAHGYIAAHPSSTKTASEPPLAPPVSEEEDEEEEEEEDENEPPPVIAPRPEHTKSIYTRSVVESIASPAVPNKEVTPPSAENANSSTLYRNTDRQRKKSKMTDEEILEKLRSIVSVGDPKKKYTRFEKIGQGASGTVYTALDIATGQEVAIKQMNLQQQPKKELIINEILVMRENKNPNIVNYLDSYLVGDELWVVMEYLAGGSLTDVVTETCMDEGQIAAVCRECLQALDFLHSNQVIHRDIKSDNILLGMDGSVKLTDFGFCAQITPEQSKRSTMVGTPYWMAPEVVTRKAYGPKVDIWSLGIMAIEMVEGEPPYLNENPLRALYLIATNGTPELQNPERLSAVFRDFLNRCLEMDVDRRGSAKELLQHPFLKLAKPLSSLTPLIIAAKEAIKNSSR
PAK1, sequence (Q13153 whole entry): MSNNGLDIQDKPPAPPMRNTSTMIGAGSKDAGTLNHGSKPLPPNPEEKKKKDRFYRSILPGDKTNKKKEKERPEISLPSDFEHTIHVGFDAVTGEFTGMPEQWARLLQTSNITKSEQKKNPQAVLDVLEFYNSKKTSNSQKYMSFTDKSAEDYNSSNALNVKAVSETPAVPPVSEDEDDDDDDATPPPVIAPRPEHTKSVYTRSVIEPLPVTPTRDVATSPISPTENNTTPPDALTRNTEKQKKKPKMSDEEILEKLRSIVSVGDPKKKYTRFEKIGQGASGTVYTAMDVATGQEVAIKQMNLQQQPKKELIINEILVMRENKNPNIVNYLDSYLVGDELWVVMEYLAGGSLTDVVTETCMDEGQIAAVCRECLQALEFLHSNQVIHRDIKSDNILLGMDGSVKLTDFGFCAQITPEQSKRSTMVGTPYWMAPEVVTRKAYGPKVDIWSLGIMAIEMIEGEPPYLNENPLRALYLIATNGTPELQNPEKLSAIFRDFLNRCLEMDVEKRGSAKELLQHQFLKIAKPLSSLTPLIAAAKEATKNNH
PAK4, sequence (O96013 whole entry): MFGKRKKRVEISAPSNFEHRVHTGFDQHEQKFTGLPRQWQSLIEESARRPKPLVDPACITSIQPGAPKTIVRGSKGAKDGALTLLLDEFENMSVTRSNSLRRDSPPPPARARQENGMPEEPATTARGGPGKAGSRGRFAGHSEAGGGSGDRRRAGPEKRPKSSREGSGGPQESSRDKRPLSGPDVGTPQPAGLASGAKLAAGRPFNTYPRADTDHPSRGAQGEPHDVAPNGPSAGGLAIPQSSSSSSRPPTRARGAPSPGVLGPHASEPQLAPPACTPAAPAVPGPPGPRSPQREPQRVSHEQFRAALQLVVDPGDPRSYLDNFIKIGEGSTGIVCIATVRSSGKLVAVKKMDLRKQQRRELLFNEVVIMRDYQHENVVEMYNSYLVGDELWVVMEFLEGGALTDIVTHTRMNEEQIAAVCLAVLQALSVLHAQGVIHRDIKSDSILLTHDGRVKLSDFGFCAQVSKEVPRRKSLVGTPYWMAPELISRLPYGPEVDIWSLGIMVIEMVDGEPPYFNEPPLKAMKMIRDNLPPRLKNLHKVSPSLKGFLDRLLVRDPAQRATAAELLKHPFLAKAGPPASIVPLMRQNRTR
PAK2 (PAK65), sequence (Q13177 whole entry): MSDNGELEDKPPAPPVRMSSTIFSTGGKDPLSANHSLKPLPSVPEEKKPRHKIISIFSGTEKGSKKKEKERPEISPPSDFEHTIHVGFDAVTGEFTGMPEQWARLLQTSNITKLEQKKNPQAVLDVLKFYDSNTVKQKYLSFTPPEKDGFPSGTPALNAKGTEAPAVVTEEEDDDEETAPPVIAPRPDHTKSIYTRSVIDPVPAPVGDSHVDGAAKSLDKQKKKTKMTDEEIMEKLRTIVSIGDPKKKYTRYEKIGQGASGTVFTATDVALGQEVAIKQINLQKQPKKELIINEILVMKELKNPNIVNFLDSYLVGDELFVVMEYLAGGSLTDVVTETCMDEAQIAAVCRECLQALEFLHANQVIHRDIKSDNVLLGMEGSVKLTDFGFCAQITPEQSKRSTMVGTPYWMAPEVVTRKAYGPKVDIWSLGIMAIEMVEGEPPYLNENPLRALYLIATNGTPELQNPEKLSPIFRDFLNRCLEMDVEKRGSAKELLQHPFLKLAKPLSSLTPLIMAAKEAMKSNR

For `CCn1c(=O)c(-c2ccc(-c3ccc(F)nc3C)cc2Cl)cc2cnc(Nc3ccc(C4CCN(C)CC4)c(F)c3)nc21`, the IC50 (commonly the concentration that gives 50% inhibition) in experiment [1] was 50 to 500 nM; in experiment [2] it was 50 to 500 nM; in experiment [3], 50 to 500 nM; in experiment [4] it was at least 5000 nM.
In the case of `CCn1c(=O)c(-c2ccc(-c3noc(C)n3)cc2Cl)cc2cnc(Nc3ccc(N4CCNCC4)c(F)c3)nc21`, the IC50 in experiment [1] is below 50 nM; in experiment [2], below 50 nM; in experiment [3] it was below 50 nM; in experiment [4], 50 to 500 nM.
Turning to `CCn1c(=O)c(-c2ccc(-c3ccnc(C)c3)cc2Cl)cc2cnc(Nc3ccc(N4CCN(C)CC4)cc3)nc21`, the IC50 in experiment [1] is below 50 nM; in experiment [2], below 50 nM; in experiment [3], below 50 nM; in experiment [4], at least 5000 nM.
For `CCN(CC)CCc1ccc(Nc2ncc3cc(-c4ccc(-c5cccnc5F)cc4Cl)c(=O)n(CC)c3n2)cc1`, the IC50 was below 50 nM in experiment [1], below 50 nM in experiment [2], below 50 nM in experiment [3] and 50 to 500 nM in experiment [4].
Turning to `CCn1c(=O)c(-c2ccc(-c3cccc4ncccc34)cc2Cl)cc2cnc(Nc3ccc(N4CCN(C)CC4)cc3)nc21`, the IC50 in experiment [1] was 50 to 500 nM; in experiment [2], 50 to 500 nM; in experiment [3], 50 to 500 nM; in experiment [4] it was at least 5000 nM.
Regarding `CCN1CCC(c2ccc(Nc3ncc4cc(-c5ccc(-c6ccnc(C(=O)NC)c6)cc5Cl)c(=O)n(CC)c4n3)cc2)CC1`, the IC50 in experiment [1] fell in the range of 50 to 500 nM; in experiment [2] it was 50 to 500 nM; in experiment [3], 50 to 500 nM; in experiment [4] it was 500 to 5000 nM.
Turning to `CCn1c(=O)c(-c2ccc(-c3ccc(C)nc3)cc2Cl)cc2cnc(Nc3ccc(C4CCNCC4)c(F)c3)nc21`, the IC50 in experiment [1] was below 50 nM; in experiment [2], 50 to 500 nM; in experiment [3] it was below 50 nM; in experiment [4] it was 500 to 5000 nM.
Consider `CCn1c(=O)c(-c2ccc(-c3ccnc(C(=O)NC)c3)cc2Cl)cc2cnc(Nc3ccc(CCN(C)C)cc3)nc21`, for which the IC50 in experiment [1] is 50 to 500 nM; in experiment [2], 50 to 500 nM; in experiment [3], 50 to 500 nM; in experiment [4] it was at least 5000 nM.
Regarding `CCN1CCN(c2ccc(Nc3ncc4cc(-c5ccc(-c6cncnc6)cc5Cl)c(=O)n(CC)c4n3)cc2)CC1`, the IC50 in experiment [1] was below 50 nM; in experiment [2], below 50 nM; in experiment [3] it was below 50 nM; in experiment [4] it was 500 to 5000 nM.
Regarding `CCn1c(=O)c(-c2ccc(-c3ccc(C)nc3)cc2Cl)cc2cnc(Nc3ccc(C4CCN(C)CC4)c(F)c3)nc21`, the IC50 in experiment [1] was below 50 nM; in experiment [2], 50 to 500 nM; in experiment [3], below 50 nM; in experiment [4], at least 5000 nM.
Regarding `CCn1c(=O)c(-c2ccc(-c3cccnc3)cc2Cl)cc2cnc(Nc3ccc(N4CCN(C(C)C)CC4)cc3)nc21` [drawing 650], the IC50 was below 50 nM in experiment [1], below 50 nM in experiment [2], below 50 nM in experiment [3] and at least 5000 nM in experiment [4].
As for `CCn1c(=O)c(-c2ccc(-c3noc(C)n3)cc2Cl)cc2cnc(Nc3ccc(N4CCN(C)CC4)c(F)c3)nc21`, the IC50 in experiment [1] is below 50 nM; in experiment [2] it was below 50 nM; in experiment [3] it was below 50 nM; in experiment [4] it was at least 5000 nM.
`CCn1c(=O)c(-c2ccc(-c3cnc(C)s3)cc2Cl)cc2cnc(Nc3ccc(CCN(C)C)cc3)nc21`: the IC50 is below 50 nM in experiment [1], below 50 nM in experiment [2], below 50 nM in experiment [3] and 500 to 5000 nM in experiment [4].
With `CCn1c(=O)c(-c2ccc(-c3ccc(OC)nc3)cc2Cl)cc2cnc(Nc3ccc(N4CCN(C)CC4)cc3)nc21`, the IC50 is below 50 nM in experiment [1], below 50 nM in experiment [2], below 50 nM in experiment [3] and 50 to 500 nM in experiment [4].
Take `Cc1nc(-c2cc(Cl)c(-c3cc4cnc(Nc5ccc(C6CCN(C)CC6)cc5)nc4n(C)c3=O)cc2F)no1`: the IC50 in experiment [1] is below 50 nM; in experiment [2], below 50 nM; in experiment [3], below 50 nM; in experiment [4] it was at least 5000 nM.
